Source: ChEMBL document CHEMBL1687695, “Thermodynamic and Structural Effects of Macrocyclization as a Constraining Method in Protein-Ligand Interactions” (ACS Med Chem Lett, 2010)
Numbered stars: 1 amine (or outer) side, 2 acyl side, 3 side chain; on linkers, the order of the positions; unused ones are H or OH. Square brackets hold non-standard residues; d marks the D form. Peptide text beside a SMILES is read from it. * marks the point of attachment. pY = N[C@@H](Cc1ccc(OP(=O)(O)O)cc1)C(=O)O; NH(CH2)9CO = O=C(CCCCCCCCCN[*:1])[*:2]; Nonanoyl = CCCCCCCCC(=O)*; Hexanoyl = CCCCCC(=O)*; Ahp = NCCCCCCC(=O)O

Experiment: Association constant Ka of the compound
Format: physicochemical

Compound | Ka
CCCCCC(=O)N[C@@H](Cc1ccc(OP(=O)(O)O)cc1)C(=O)N[C@H](C(=O)N[C@@H](CC(N)=O)C(=O)N[C@H](C(=O)N1CCC[C@H]1C(=O)NC)C(C)C)C(C)C (Hexanoyl-[pY]VNVP-NHMe) | 6.5 ×10⁶ /M
CC(C)[C@@H]1NC(=O)[C@H](Cc2ccc(OP(=O)(O)O)cc2)NC(=O)CCCCCCNC(=O)CNC(=O)[C@H](CC(N)=O)NC1=O (cyclo([Ahp][pY]VNG)) | 4.7 ×10⁴ /M
CCCCCCCCC(=O)N[C@@H](Cc1ccc(OP(=O)(O)O)cc1)C(=O)N[C@H](C(=O)N[C@@H](CC(N)=O)C(=O)NCC(=O)NC)C(C)C (Nonanoyl-[pY]VNG-NHMe) | 5.7 ×10⁵ /M
CC(C)[C@@H]1NC(=O)[C@H](Cc2ccc(OP(=O)(O)O)cc2)NC(=O)CCCCCCCCCNC(=O)CNC(=O)[C@H](CC(N)=O)NC1=O (cyclo(G[NH(CH2)9CO][pY]VN)) | 8.5 ×10⁵ /M

Further lines, results first:

Ka | Compound
2.3 ×10⁶ /M | CCCCCC(=O)N[C@@H](Cc1ccc(OP(=O)(O)O)cc1)C(=O)N[C@H](C(=O)N[C@@H](CC(N)=O)C(=O)N[C@H](C(=O)NC)C(C)C)C(C)C (Hexanoyl-[pY]VNV-NHMe)
4.1 ×10⁵ /M | CCCCCC(=O)N[C@@H](Cc1ccc(OP(=O)(O)O)cc1)C(=O)N[C@H](C(=O)N[C@@H](CC(N)=O)C(=O)NCC(=O)NC)C(C)C (Hexanoyl-[pY]VNG-NHMe)
1 ×10⁷ /M | CC(C)[C@@H]1NC(=O)[C@H](Cc2ccc(OP(=O)(O)O)cc2)NC(=O)CCCCCCNC(=O)[C@@H]2CCCN2C(=O)[C@H](C(C)C)NC(=O)[C@H](CC(N)=O)NC1=O (cyclo([Ahp][pY]VNVP))
2.3 ×10⁶ /M | CC(C)[C@@H]1NC(=O)[C@H](CC(N)=O)NC(=O)[C@H](C(C)C)NC(=O)[C@H](Cc2ccc(OP(=O)(O)O)cc2)NC(=O)CCCCCCNC1=O (cyclo([Ahp][pY]VNV))
